These results are taken from PubChem BioAssay (NCI).

Common to all, as to test: growth of human tumour cells (NCI), 48 h
Experiment [1] deals with DMS 273 small cell lung.
For experiment [2], the system named is HCC-2998 colon.
Experiment [3] relates to HCT-15 colon.
The subject of experiment [4] is HL-60(TB) leukemia.
Experiment [5] concerns HOP-62 NSCLC.
The subject of experiment [6] is M19-MEL melanoma.
The test system of experiment [7] is SK-MEL-28 melanoma.
Experiment [8] deals with SNB-78 CNS.
Experiment [9] deals with XF 498 CNS.
Experiment [10] deals with NCI/ADR-RES ovarian.

Each structure is given as a SMILES string. Values joined by “and” are separate entries in the source; they are usually repeats but may differ in a detail not shown here. Equal entries are not always repeated.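 These data come from cells grown in 96-well plates and exposed to compound for 48 hours at five concentrations. GI50 marks 50% less growth. At the TGI there is no net growth.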

Turning to `NC1CCCCC1N.O=C1C=C/C(=C(/c2ccc(O)c(Br)c2)c2ccccc2S(=O)(=O)[O-])C=C1Br.O=C1C=C/C(=C(/c2ccc(O)c(Br)c2)c2ccccc2S(=O)(=O)[O-])C=C1Br.[Pt+4]`, the GI50 in experiment [1] was 0.813 µM; in [2] it was 4.66 µM; in experiment [3] it was 3.85 µM; in experiment [4], 1.43 µM; in [5], 7.88 µM; in experiment [6] it was 0.539 µM. The values for the GI50 in experiment [7], in experiment [8] and in experiment [9] were 2.35 µM, 48.2 µM and 0.112 µM, respectively. In addition, the TGI in [1] was 29.2 µM; in experiment [2], more than 100 µM; in experiment [3], more than 100 µM; in experiment [4], more than 100 µM; in [5] it was 9.95 µM; in experiment [6], 32.2 µM. The TGI in experiment [7] is 38.2 µM; in experiment [8], more than 100 µM; in [9], 0.927 µM.
Turning to `COC(=O)c1ncc2c(=O)[nH]c3ccccc3c2c1C(=O)OC`, the TGI in experiment [1], in [2], in experiment [3], in [4], in [5] and in experiment [6] was more than 100 µM throughout. For the same compound, the TGI in experiment [7], in experiment [8] and in experiment [9] was more than 100 µM throughout.
As to `CC1=NN(C(=O)Nc2ccc(Cl)cc2)C(=O)C2CCC(=O)N12` (configuration not stated), the TGI in [1] was more than 100 µM; in experiment [2] it was more than 100 µM; in experiment [3], 44.2 µM; in experiment [4] it was more than 100 µM; in experiment [5] it was more than 100 µM; in experiment [6], more than 100 µM. The TGI in experiment [7], in experiment [8] and in [9] was more than 100 µM throughout.
Regarding `CC(=O)OCCOCNC(=S)N/N=C/c1cc([N+](=O)[O-])ccc1O`, the TGI in experiment [1], in experiment [2], in experiment [3], in experiment [4], in [5] and in experiment [6] was more than 100 µM in each case. The TGI in [7], in [8] and in experiment [9] was more than 100 µM each time.
For the compound `COc1ccc(C2ON(c3ccccc3)CC=C2C)cc1` (configuration not stated), the TGI in experiment [1], in experiment [2], in experiment [3], in experiment [4], in [5] and in [6] was more than 100 µM each time. The TGI in experiment [7], in [8] and in experiment [9] was more than 100 µM throughout.
In the case of `Cc1ccc(NC(=O)CC/C(CC(=O)C(C)(C)C)=N\NC(=O)C[n+]2ccccc2)cc1C`, the TGI in experiment [1], in [2], in experiment [3], in experiment [4], in experiment [5] and in experiment [6] was more than 100 µM each time. Besides, the TGI in experiment [7], in experiment [8] and in experiment [9] was more than 100 µM in each case.
On to `O=C(/C=C/c1ccccc1O)c1ccc([N+](=O)[O-])cc1`, for which the TGI in [1] was 52.6 µM; in [2], 30.1 µM; in [3], 46.8 µM; in [4] it was 56.9 µM; in experiment [5], 32.4 µM; in experiment [6], 36.5 µM. The TGI in [7] stood at 94.4 µM; in experiment [8], 89.1 µM; in [9], 32.7 µM.
Take `CC(=O)O[C@H]1CCN2C(=O)C=CC(OCc3ccccc3)C12` (some centres not stated): the TGI in experiment [1], in [2], in experiment [3], in experiment [4], in experiment [5] and in [6] was more than 100 µM throughout. The TGI in experiment [7], in experiment [8] and in experiment [9] was more than 100 µM in each case.
For `Cn1c(=O)nc2n(-c3ccc(Cl)cc3)c3cc(Cl)ccc3nc-2c1=O`, the TGI was 12.5 µM in experiment [1]; 14.1 µM in experiment [2]; 3.69 µM in experiment [3]; 5.66 µM in experiment [4]; 33.2 µM in experiment [5]; 3.53 µM in experiment [6]. Besides, the TGI in [10] is 35.6 µM; in experiment [7], 7.19 µM; in [8] it was more than 57.4 µM; in experiment [9], 2.73 µM.
`COc1cc(/C=C2\CCC/C(=C\c3ccc(O)c(OC)c3)C2=O)ccc1O`: the TGI in [1] is 3.07 µM; in experiment [2], 8.09 µM and 3.04 µM; in experiment [3], 8.44 µM and 3.36 µM; in [4], 10.7 µM and 10.8 µM; in experiment [5] it was 8.32 µM and 3.95 µM; in [6], 3.9 µM. Besides, the TGI in experiment [10] was 12.6 µM and 9.79 µM; in experiment [7], 16.4 µM and 4.05 µM; in [8] it was 8.03 µM; in experiment [9], 16.8 µM. The GI50 in [2] is 1.67 µM; in [3] it was 1.49 µM; in experiment [4] it was 0.397 µM; in experiment [5], 1.79 µM; in experiment [10], 2.34 µM; in experiment [7] it was 1.68 µM.
